Results: publication PMC5119973 (Cancer Medicine, 2016)
“And” between values parts separate entries of the source, which are not always exact repeats. Equal values may be shown once.

Target: T1, CDKL2 (Homo sapiens, UniProt Q92772)
T1 construct: purchased DiscoveRx (KINOMEscan service)
T1 sequence (Q92772 1-493): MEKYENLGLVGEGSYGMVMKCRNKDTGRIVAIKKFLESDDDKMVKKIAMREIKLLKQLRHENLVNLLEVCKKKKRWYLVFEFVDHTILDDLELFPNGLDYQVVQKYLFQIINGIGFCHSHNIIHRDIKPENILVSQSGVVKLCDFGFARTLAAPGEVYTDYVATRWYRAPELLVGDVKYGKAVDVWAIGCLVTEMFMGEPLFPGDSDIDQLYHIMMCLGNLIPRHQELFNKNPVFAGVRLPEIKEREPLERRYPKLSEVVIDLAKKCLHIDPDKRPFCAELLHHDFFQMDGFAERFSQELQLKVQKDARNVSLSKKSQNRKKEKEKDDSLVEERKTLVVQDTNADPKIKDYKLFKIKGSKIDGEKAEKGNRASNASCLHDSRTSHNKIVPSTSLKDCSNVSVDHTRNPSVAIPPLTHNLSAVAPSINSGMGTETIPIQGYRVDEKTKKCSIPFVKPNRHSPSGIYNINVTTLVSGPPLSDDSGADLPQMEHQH
Test: KINOMEscan active-site competitive binding assay
Conditions: slash = two separate measurements

Which Kd does the source give for `CNC(=O)c1cc(Oc2ccc(NC(=O)Nc3ccc(Cl)c(C(F)(F)F)c3)c(F)c2)cc[n+]1[O-]` [M‐2] here?
Its Kd is 76 nM.

For `NC(=O)c1cc(Oc2ccc(NC(=O)Nc3ccc(Cl)c(C(F)(F)F)c3)c(F)c2)cc[n+]1[O-]` [M‐5], which Kd is on record?
Its Kd is 1100 nM.

With `CNC(=O)c1cc(Oc2ccc(NC(=O)Nc3ccc(Cl)c(C(F)(F)F)c3)c(F)c2)ccn1` [Regorafenib, reference compound] as the compound, how does the Kd read?
Its Kd is 48 nM and 58 nM.

System: not listed separately
Test: Calculated free drug concentration in human plasma
Type: in vivo
Conditions: not given

Which “Calculated free drug concentration” value does the source give for `CNC(=O)c1cc(Oc2ccc(NC(=O)Nc3ccc(Cl)c(C(F)(F)F)c3)c(F)c2)cc[n+]1[O-]` [M‐2] here?
The value was 13.5 nmol/L.

With `NC(=O)c1cc(Oc2ccc(NC(=O)Nc3ccc(Cl)c(C(F)(F)F)c3)c(F)c2)cc[n+]1[O-]` [M‐5] as the compound, how does the “Calculated free drug concentration” value read?
Its value is 3.4 nmol/L.

With `CNC(=O)c1cc(Oc2ccc(NC(=O)Nc3ccc(Cl)c(C(F)(F)F)c3)c(F)c2)ccn1` [Regorafenib, reference compound] as the compound, how does the “Calculated free drug concentration” value read?
Its value is 42.1 nmol/L.

Target: T2, CSF1R (Homo sapiens, UniProt P07333)
T2 construct: purchased DiscoveRx (KINOMEscan service)
Test: KINOMEscan active-site competitive binding assay
Conditions: slash = two separate measurements

T2 sequence (P07333 20-972): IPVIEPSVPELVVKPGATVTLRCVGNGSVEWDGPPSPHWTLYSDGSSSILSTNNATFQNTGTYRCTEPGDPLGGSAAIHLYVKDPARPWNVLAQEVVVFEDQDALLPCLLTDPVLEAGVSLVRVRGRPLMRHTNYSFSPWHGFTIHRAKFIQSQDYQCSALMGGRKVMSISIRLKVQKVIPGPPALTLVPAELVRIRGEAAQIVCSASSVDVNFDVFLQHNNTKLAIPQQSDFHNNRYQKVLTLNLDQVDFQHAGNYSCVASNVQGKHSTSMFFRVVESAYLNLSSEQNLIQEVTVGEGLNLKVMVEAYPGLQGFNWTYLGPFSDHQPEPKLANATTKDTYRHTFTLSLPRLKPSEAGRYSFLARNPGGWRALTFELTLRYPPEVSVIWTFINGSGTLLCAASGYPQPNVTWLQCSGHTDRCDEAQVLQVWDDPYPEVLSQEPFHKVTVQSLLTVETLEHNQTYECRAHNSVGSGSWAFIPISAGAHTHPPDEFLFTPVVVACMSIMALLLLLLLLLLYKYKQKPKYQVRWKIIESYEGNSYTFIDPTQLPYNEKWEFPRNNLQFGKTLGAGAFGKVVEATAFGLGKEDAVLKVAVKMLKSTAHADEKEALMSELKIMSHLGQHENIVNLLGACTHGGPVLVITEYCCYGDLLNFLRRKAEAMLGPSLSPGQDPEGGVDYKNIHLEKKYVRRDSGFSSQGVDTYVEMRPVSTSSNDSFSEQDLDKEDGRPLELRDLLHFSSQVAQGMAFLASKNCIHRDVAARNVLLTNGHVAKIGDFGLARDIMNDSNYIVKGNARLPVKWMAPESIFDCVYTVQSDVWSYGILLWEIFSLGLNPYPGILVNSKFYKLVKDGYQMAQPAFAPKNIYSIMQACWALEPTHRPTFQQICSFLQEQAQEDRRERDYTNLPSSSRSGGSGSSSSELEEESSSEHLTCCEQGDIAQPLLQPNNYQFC

Which Kd does the source give for `CNC(=O)c1cc(Oc2ccc(NC(=O)Nc3ccc(Cl)c(C(F)(F)F)c3)c(F)c2)cc[n+]1[O-]` [M‐2] here?
The Kd was 21 nM.

For `NC(=O)c1cc(Oc2ccc(NC(=O)Nc3ccc(Cl)c(C(F)(F)F)c3)c(F)c2)cc[n+]1[O-]` [M‐5], which Kd is on record?
Its Kd is 13 nM.

For `CNC(=O)c1cc(Oc2ccc(NC(=O)Nc3ccc(Cl)c(C(F)(F)F)c3)c(F)c2)ccn1` [Regorafenib, reference compound], which Kd is on record?
Its Kd is 43 nM and 10 nM.

Target: T3, ZAK (Homo sapiens, UniProt Q9NYL2)
T3 construct: purchased DiscoveRx
Test: KINOMEscan active-site competitive binding assay
Conditions: slash = two separate measurements

T3 sequence (Q9NYL2 whole entry): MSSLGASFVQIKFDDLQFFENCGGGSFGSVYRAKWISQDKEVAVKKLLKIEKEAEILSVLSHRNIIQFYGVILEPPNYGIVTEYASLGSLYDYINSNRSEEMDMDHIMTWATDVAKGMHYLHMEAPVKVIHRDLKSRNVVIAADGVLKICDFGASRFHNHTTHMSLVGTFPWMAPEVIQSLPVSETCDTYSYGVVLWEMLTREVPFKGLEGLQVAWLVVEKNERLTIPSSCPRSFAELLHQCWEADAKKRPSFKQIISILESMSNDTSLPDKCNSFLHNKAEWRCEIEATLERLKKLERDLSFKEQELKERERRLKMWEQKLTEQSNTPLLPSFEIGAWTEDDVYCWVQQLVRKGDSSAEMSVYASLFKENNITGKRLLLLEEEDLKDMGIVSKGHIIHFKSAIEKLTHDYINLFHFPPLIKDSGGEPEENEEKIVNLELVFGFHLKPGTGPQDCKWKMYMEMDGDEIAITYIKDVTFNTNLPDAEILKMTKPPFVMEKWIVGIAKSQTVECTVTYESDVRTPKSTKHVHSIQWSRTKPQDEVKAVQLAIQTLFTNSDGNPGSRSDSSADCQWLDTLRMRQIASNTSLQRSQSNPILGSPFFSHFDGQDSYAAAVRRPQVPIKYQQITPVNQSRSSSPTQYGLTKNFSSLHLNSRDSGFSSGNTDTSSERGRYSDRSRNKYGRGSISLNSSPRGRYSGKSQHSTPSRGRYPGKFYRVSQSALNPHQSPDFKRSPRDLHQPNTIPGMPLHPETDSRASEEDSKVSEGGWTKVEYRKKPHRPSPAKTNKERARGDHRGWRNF

With `CNC(=O)c1cc(Oc2ccc(NC(=O)Nc3ccc(Cl)c(C(F)(F)F)c3)c(F)c2)cc[n+]1[O-]` [M‐2] as the compound, how does the Kd read?
The Kd was 6.7 nM.

For `NC(=O)c1cc(Oc2ccc(NC(=O)Nc3ccc(Cl)c(C(F)(F)F)c3)c(F)c2)cc[n+]1[O-]` [M‐5], which Kd is on record?
The Kd was 7 nM.

With `CNC(=O)c1cc(Oc2ccc(NC(=O)Nc3ccc(Cl)c(C(F)(F)F)c3)c(F)c2)ccn1` [Regorafenib, reference compound] as the compound, how does the Kd read?
The Kd was 2.8 nM and 2 nM.

Target: T4, EPHA8 (Homo sapiens, UniProt P29322)
T4 construct: purchased DiscoveRx (KINOMEscan service)
T4 sequence (P29322 28-1005): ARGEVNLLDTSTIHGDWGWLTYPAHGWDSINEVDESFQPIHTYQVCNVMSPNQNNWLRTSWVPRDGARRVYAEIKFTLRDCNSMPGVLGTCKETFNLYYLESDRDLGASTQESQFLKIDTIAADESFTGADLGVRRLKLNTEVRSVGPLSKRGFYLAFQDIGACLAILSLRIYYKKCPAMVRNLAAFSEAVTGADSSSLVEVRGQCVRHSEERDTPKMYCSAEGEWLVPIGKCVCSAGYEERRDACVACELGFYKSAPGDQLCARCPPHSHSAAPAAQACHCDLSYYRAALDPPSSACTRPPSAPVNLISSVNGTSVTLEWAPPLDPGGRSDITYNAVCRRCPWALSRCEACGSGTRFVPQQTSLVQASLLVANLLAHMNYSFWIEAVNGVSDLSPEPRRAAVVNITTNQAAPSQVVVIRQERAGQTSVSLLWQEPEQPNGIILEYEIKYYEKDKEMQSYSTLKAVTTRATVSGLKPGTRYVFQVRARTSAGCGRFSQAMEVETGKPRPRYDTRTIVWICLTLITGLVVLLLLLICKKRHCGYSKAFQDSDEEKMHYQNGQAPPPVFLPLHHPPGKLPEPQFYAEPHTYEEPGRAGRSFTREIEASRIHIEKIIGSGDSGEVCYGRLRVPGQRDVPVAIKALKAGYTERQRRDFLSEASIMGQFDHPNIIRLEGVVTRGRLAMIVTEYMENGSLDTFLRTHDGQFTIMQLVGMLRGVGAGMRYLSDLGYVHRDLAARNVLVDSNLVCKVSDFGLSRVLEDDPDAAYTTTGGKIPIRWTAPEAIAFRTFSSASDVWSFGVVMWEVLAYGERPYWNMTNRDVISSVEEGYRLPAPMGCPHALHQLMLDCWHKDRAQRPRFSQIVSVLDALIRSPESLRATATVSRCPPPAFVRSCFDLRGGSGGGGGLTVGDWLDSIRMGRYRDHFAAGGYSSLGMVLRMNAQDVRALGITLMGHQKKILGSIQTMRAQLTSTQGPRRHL
Test: KINOMEscan active-site competitive binding assay
Conditions: slash = two separate measurements

Which Kd does the source give for `CNC(=O)c1cc(Oc2ccc(NC(=O)Nc3ccc(Cl)c(C(F)(F)F)c3)c(F)c2)cc[n+]1[O-]` [M‐2] here?
The Kd was 61 nM.

Which Kd does the source give for `NC(=O)c1cc(Oc2ccc(NC(=O)Nc3ccc(Cl)c(C(F)(F)F)c3)c(F)c2)cc[n+]1[O-]` [M‐5] here?
The Kd was 73 nM.

For `CNC(=O)c1cc(Oc2ccc(NC(=O)Nc3ccc(Cl)c(C(F)(F)F)c3)c(F)c2)ccn1` [Regorafenib, reference compound], which Kd is on record?
Its Kd is 140 nM and 130 nM.

Target: T5, MEK5 (Homo sapiens, UniProt Q13163)
T5 construct: purchased DiscoveRx (KINOMEscan service)
T5 sequence (Q13163 1-448): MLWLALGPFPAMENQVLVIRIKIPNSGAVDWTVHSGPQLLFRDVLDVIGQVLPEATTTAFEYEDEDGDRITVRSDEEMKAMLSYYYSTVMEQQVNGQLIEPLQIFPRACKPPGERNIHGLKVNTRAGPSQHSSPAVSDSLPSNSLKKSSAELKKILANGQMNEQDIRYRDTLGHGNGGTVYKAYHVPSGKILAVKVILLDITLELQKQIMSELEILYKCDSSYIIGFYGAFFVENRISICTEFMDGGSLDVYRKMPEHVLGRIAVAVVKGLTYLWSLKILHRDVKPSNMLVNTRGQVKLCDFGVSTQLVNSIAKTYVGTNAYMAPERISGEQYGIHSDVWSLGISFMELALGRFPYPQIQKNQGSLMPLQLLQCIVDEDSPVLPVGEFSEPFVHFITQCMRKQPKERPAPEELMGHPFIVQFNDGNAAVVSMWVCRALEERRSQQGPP
Test: KINOMEscan active-site competitive binding assay
Conditions: not given

Which Kd does the source give for `CNC(=O)c1cc(Oc2ccc(NC(=O)Nc3ccc(Cl)c(C(F)(F)F)c3)c(F)c2)cc[n+]1[O-]` [M‐2] here?
Its Kd is 10 nM.

Which Kd does the source give for `NC(=O)c1cc(Oc2ccc(NC(=O)Nc3ccc(Cl)c(C(F)(F)F)c3)c(F)c2)cc[n+]1[O-]` [M‐5] here?
The Kd was 10 nM.

With `CNC(=O)c1cc(Oc2ccc(NC(=O)Nc3ccc(Cl)c(C(F)(F)F)c3)c(F)c2)ccn1` [Regorafenib, reference compound] as the compound, how does the Kd read?
The Kd was 40 nM.

Target: T6, CDK11 (Homo sapiens, UniProt Q9BWU1)
T6 construct: purchased DiscoveRx (KINOMEscan service)
Test: KINOMEscan active-site competitive binding assay
Conditions: slash = two separate measurements

T6 sequence (Q9BWU1 whole entry): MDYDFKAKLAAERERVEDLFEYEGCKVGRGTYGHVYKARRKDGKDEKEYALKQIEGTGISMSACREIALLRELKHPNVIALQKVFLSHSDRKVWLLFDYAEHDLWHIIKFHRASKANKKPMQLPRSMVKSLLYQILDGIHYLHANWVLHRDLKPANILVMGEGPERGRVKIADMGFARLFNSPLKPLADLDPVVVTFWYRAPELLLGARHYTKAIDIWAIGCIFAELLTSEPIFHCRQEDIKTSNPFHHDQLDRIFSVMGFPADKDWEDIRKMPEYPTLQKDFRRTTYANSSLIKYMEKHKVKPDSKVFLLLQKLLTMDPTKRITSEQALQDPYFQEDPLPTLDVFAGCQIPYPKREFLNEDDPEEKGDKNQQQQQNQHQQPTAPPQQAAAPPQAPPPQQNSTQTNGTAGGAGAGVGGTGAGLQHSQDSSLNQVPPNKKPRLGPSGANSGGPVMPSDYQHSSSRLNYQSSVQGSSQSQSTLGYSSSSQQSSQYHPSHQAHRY

Which Kd does the source give for `CNC(=O)c1cc(Oc2ccc(NC(=O)Nc3ccc(Cl)c(C(F)(F)F)c3)c(F)c2)cc[n+]1[O-]` [M‐2] here?
Its Kd is 33 nM.

Which Kd does the source give for `NC(=O)c1cc(Oc2ccc(NC(=O)Nc3ccc(Cl)c(C(F)(F)F)c3)c(F)c2)cc[n+]1[O-]` [M‐5] here?
The Kd was 86 nM.

With `CNC(=O)c1cc(Oc2ccc(NC(=O)Nc3ccc(Cl)c(C(F)(F)F)c3)c(F)c2)ccn1` [Regorafenib, reference compound] as the compound, how does the Kd read?
Its Kd is 67 nM and 43 nM.

Target: T7, ABL1-np (Homo sapiens, UniProt P00519)
T7 construct: purchased DiscoveRx (KINOMEscan service)
Test: KINOMEscan active-site competitive binding assay
Conditions: ABL1-np (not phosphorylated); slash = two separate measurements

T7 sequence (P00519 whole entry): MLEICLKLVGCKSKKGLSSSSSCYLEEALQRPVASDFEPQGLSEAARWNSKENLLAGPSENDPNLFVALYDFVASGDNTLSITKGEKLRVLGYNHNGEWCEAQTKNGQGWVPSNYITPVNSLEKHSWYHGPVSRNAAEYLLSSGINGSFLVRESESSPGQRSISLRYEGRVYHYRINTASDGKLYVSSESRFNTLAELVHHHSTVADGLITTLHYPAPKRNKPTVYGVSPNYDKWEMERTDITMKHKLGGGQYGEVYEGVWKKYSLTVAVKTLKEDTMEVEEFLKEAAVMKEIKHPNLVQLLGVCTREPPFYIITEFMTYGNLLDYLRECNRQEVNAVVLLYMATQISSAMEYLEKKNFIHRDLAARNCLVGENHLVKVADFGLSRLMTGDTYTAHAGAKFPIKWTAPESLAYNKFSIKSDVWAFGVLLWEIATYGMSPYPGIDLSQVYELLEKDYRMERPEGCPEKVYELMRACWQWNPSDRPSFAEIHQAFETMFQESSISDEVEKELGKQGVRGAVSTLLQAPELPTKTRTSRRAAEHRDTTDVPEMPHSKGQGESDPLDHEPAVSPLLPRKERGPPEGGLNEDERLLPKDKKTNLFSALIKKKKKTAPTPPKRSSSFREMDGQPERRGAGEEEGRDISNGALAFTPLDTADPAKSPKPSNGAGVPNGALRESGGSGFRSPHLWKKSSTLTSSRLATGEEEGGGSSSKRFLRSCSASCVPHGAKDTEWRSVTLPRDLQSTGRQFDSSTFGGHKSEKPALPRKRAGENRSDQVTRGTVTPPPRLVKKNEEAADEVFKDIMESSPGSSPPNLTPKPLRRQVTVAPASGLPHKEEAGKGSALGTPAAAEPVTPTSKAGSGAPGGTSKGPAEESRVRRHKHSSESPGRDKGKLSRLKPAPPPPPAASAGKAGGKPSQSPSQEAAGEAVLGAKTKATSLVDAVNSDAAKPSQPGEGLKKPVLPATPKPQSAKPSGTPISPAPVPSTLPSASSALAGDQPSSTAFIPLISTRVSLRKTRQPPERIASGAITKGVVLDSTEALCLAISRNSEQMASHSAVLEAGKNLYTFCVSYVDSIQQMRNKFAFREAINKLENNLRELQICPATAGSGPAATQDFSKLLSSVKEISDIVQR

Which Kd does the source give for `CNC(=O)c1cc(Oc2ccc(NC(=O)Nc3ccc(Cl)c(C(F)(F)F)c3)c(F)c2)cc[n+]1[O-]` [M‐2] here?
The Kd was 23 nM.

With `NC(=O)c1cc(Oc2ccc(NC(=O)Nc3ccc(Cl)c(C(F)(F)F)c3)c(F)c2)cc[n+]1[O-]` [M‐5] as the compound, how does the Kd read?
The Kd was 20 nM.

With `CNC(=O)c1cc(Oc2ccc(NC(=O)Nc3ccc(Cl)c(C(F)(F)F)c3)c(F)c2)ccn1` [Regorafenib, reference compound] as the compound, how does the Kd read?
The Kd was 32 nM and 16 nM.

Target: T8, p38-beta (Homo sapiens, UniProt Q15759)
T8 construct: purchased DiscoveRx (KINOMEscan service)
Test: KINOMEscan active-site competitive binding assay
Conditions: slash = two separate measurements

T8 sequence (Q15759 whole entry): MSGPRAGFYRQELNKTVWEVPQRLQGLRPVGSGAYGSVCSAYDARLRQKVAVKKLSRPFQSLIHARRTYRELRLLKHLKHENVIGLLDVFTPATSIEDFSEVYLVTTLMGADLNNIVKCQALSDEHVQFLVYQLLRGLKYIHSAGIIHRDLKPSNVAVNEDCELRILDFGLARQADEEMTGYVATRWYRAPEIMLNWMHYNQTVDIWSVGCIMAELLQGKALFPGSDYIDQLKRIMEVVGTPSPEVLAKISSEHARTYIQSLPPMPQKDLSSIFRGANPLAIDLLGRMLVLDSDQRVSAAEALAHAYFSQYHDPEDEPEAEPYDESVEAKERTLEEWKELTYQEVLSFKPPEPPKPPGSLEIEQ

With `CNC(=O)c1cc(Oc2ccc(NC(=O)Nc3ccc(Cl)c(C(F)(F)F)c3)c(F)c2)cc[n+]1[O-]` [M‐2] as the compound, how does the Kd read?
Its Kd is 8.7 nM.

Which Kd does the source give for `NC(=O)c1cc(Oc2ccc(NC(=O)Nc3ccc(Cl)c(C(F)(F)F)c3)c(F)c2)cc[n+]1[O-]` [M‐5] here?
Its Kd is 25 nM.

For `CNC(=O)c1cc(Oc2ccc(NC(=O)Nc3ccc(Cl)c(C(F)(F)F)c3)c(F)c2)ccn1` [Regorafenib, reference compound], which Kd is on record?
The Kd was 44 nM and 28 nM.

Target: T9, MKNK2 (Homo sapiens, UniProt Q9HBH9)
T9 construct: purchased DiscoveRx (KINOMEscan service)
Test: KINOMEscan active-site competitive binding assay
Conditions: slash = two separate measurements

T9 sequence (Q9HBH9 whole entry): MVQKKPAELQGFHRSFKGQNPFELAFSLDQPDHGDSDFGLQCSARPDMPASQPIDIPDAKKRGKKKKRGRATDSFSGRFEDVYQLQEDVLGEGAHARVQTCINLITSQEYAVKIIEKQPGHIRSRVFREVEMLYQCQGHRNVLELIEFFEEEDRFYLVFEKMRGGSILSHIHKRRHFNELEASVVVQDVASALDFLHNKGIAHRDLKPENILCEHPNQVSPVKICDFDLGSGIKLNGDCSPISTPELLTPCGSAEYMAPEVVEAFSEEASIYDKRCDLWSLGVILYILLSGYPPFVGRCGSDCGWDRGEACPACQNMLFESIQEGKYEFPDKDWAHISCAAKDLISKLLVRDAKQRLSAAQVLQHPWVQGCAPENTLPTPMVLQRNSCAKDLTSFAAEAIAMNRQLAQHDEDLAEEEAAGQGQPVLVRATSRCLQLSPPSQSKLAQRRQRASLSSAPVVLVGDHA

Which Kd does the source give for `CNC(=O)c1cc(Oc2ccc(NC(=O)Nc3ccc(Cl)c(C(F)(F)F)c3)c(F)c2)cc[n+]1[O-]` [M‐2] here?
The Kd was 20 nM.

Which Kd does the source give for `NC(=O)c1cc(Oc2ccc(NC(=O)Nc3ccc(Cl)c(C(F)(F)F)c3)c(F)c2)cc[n+]1[O-]` [M‐5] here?
Its Kd is 11 nM.

With `CNC(=O)c1cc(Oc2ccc(NC(=O)Nc3ccc(Cl)c(C(F)(F)F)c3)c(F)c2)ccn1` [Regorafenib, reference compound] as the compound, how does the Kd read?
The Kd was 90 nM and 64 nM.
